The nature of data set [1]: UV/vis absorption and emission spectra (Stokes shift). The class given is physicochemical. On the procedure:
(§1) Absorption spectra and spectrophotometric titrations were acquired with a Specord 210 Plus spectrometer (Analytik Jena), using dilute solutions with an absorbance of about 0.1 at the absorption maximum. The binding constants were assessed with BindFit v0.5 software. Fluorescence spectra and titrations were carried out on a FluoroMax 4 spectrofluorometer (Horiba Jobin-Yvon).
Normalized UV/vis absorption and emission (λex=465 nm) spectra at a fixed concentration of thiourea-based compound 19 were recorded in CHCl3, toluene, acetonitrile (MeCN) and methanol (MeOH), yielding Stokes shifts between 160 nm and 230 nm, respectively. This positive solvatochromism is ascribed to the effective intramolecular charge transfer from the two electron-donating groups (thiourea and tertiary amine) to the electron-accepting benzodiazole as the solvent polarity increases (FIG. 1-4). […]
Normalized UV/vis absorption and emission spectra of guanidinium-based compound 25 at a fixed concentration were recorded in CHCl3 and MeCN. Sizable Stokes shifts of 180 nm and 210 nm were observed (FIGS. 8 and 9) as a result of the effective intramolecular charge transfer process established from the two electron-donating groups (guanidinium and tertiary amine) to the electron-accepting benzodiazole in solvents of different polarity.

Data set [2] can be described thus: Spectroscopic titration of compound 19 with ENOX-TBA in MeCN. In kind it is binding. The method, then:
as §1
This example illustrates the titration of the thiourea-based compound 19 with the ammonium salt of the antibiotic enoxacin (ENOX-TBA) in MeCN. […] The bathochromic shift of the absorption band upon binding can be rationalized considering that the donor-acceptor interaction between the thiourea and benzoxadiazole is reinforced with the charge donation of the electron-rich carboxylate anion to the thiourea through such supramolecular interactions. […] The estimated binding constant for this interaction was calculated to be K19/ENOX-TBA=[…] in MeCN.

Data set [3] is described as follows: Solubility in polar solvents. In kind it is physicochemical. The following applies: polar organic solvents and solvent/water mixtures.
Data set [4] in a line: Spectroscopic titration of compound 25 with TBA-OAc. In kind it is binding. The note with it: for change of UV/vis absorption band upon titration with TBA-OAc / change of fluorescence emission upon titration with TBA-OAc: c[25]=9×10^−6 M. The method, then:
as §1
The bathochromic shift of the absorption band upon binding can be rationalized considering that the donor-acceptor interaction between the guanidinium and the benzoxadiazole is reinforced by a charge donation of the electron-rich acetate anion to the guanidinium.

“And” between values parts separate entries of the source, which are not always exact repeats. Equal values may be shown once. “Also recorded” adds a separate entry of the source.

As to `C=C(C)C(=O)OCCN(C)c1ccc(NC(=S)NC(=O)c2ccccc2)c2nonc12` [Compound 19], the absorption band position in data set [1] (in MeCN) turned out to be 462 nm. In addition, the Stokes shift in data set [1] (in acetonitrile (MeCN)) is listed as over 180 nm; in data set [1] (in chloroform (CHCl3)) it was over 170 nm; in data set [1] (in methanol (MeOH)), over 230 nm; in data set [1] (in toluene), over 160 nm. Also, in data set [2], the “interaction with oxoanions (e.g. ENOX-TBA)” value is reported as “can interact”. In data set [2] (MeCN, c[19]=2.2×10^−5 M), the “change of UV/vis absorption band upon titration with ENOX-TBA” value was “decrease and red shift”.

Take `C=C(C)C(=O)OCCN(C)c1ccc(NC(=N)NC(=O)c2ccccc2)c2nonc12` [Compound 23, 2-((7-(3-benzoylguanidino)benzo[c][1,2,5]oxadiazol-4-yl)(methyl)amino)ethyl methacrylate]: the solubility result in data set [3] is “soluble in polar organic solvents and polar organic solvent/water mixtures”.

For the compound `C=C(C)C(=O)OCCN(C)c1ccc(NC(=N)NC(=O)c2ccccc2)c2nonc12.Cl` [Compound 25, benzamido((7-((2-(methacrycrykoyloxy)ethyl)(methyl)amino)benzo[c][1,2,5]oxadiazol-4-yl)amino)methaniminium chloride], the absorption band position in data set [1] (CHCl3 and MeCN) is 450 nm. Besides, the Stokes shift was 210 nm and > 210 nm in data set [1] (in acetonitrile (MeCN)); 180 nm and > 180 nm in data set [1] (in chloroform (CHCl3)). Moreover, the “change of UV/vis absorption band upon titration with TBA-OAc” value in data set [4] (CHCl3) was “decrease and a red shift”; in data set [4] (MeCN), “decrease and a red shift”. Also, the “change of fluorescence emission upon titration with TBA-OAc” value was “red shift and decrease; also recorded: quenching and a red shift; also recorded: decrease and red shift” in data set [4] (CHCl3); “red shift and decrease; also recorded: quenching and a red shift; also recorded: decrease and red shift” in data set [4] (MeCN). Further, in data set [4] (non-polar and polar solvents), the “interaction with oxoanions (e.g. TBA-OAc)” value is recorded as “can interact”.

The record behind these values is US12710366B2, “Dyes undergoing changes in color and fluorescence upon binding of organic oxo compounds” (Bundesrepublik Deutschland, vertreten durch den …, priority 2020, dated 2026).
